Experimental data taken from patent US9220682B2, “Nanocarrier therapy for treating invasive tumors” (Emory University, priority 2009, dated 2015).
Entries after “also recorded” stand apart in the source; their conditions may differ.

Key:
HIF2a = settings: WM35 PKB cells, 5 micromolar, 24 hours; cited from earlier work
RT2 glioma cells = assay: Actin staining of IB-treated glioma cells; type: cell-based, rat; settings: 24 hours, versus ethanol
Procedure: FIGS. 9A and 9B are photomicrographs showing the results of in vitro treatment of RT2 glioma cells with IB. Cells were treated with ethanol […] or IB […] and stained for actin (red) and nuclei (blue).
The ability of IB to impact invasion capability of glioma cells was tested further in vitro. Cells were treated for 24 hours with either IB dissolved in ethanol or an equivalent volume of ethanol.

glioma cells = assay: Invasion assay at 24 hours, encapsulated versus free drug; type: cell-based
Procedure: FIG. 4 is a chart showing the results of an invasion assay at 24 hours, showing invasion (%) over time (24 hours).
An invasion assay was performed at 24 hours. The encapsulated formulation was compared to tree drug in vitro and was still active as an anti-invasive agent. Encapsulation of the compound in liposomes is reproducible and consistent between batched.

[1] = system: RT2 rat astrocytoma cell line; assay: Cytotoxicity and proliferation assays using CCK8; type: cell-based
Procedure: (§1) FIG. 1a is a bar graph showing the effects of IB on cell growth in vitro, in terms of normalized cell viability.
(§2) An aggressive rat astrocytoma cell line, RT2, was maintained in vitro. This cell line was used to test 24 compounds at varying concentrations in cytotoxicity and proliferation assays using CCK8 (Dojindo), a tetrazolium salt based assay. Compounds without detrimental effects on viability and growth were tested using the Boyden chamber invasion assay at 48 hours. Compounds were also tested for viability against astrocyte cultures using CCK8. Of these compounds, several were identified as anti-invasive. However, several compounds were toxic to astrocytes in culture and several were cytotoxic and not in fact anti-invasive.

astrocytes = assay: Viability against astrocyte cultures using CCK8; type: cell-based; settings: CCK8, 5 μg/ml
Procedure: as §1, §2

[2] = system: RT2 rat astrocytoma cell line; assay: Boyden chamber invasion assay at 48 hours; type: cell-based; settings: RT2 cells, 0.01-5 μg/ml
Procedure: FIG. 1b is a bar graph showing the dose dependent effects of IB on invasion using a Boyden Chamber Assay. […] At concentrations above 20 μg/ml, IB was cytotoxic to cancer, and not just anti-invasive.
as §2
It also is benign to astrocyte co-culture making it safer for delivery to the brain (FIG. 3a). The compound is blue in color with an absorbance at 610 nm making it easily assayable. […] At concentrations above 20 μg/ml, IB was cytotoxic to cancer and not just anti-invasive.

[3] = Pharmacokinetics of free versus liposomal IB (Example 3); type: in vivo; settings: rat, tail vein, 20 mg/kg, Cremaphor formulation
Procedure: FIG. 5 is a chart showing the pharmacokinetics of free versus encapsulated imipramine blue, in terms of plasma concentration (mg/ml) over time (hours).
Animals were injected via tail vein with 20 mg/kg liposomal or free IB. Orbital blood draws were performed at intervals and blood collected, centrifuged, and serum read at 610 nm absorbance for pharmacokinetics. […] For biodistribution, animals were perfused with saline, organs collected, homogenized, and drug extracted with DMSO and read at 610 nm absorbance.
The circulation time of the free imipramine blue was tested in a Cremaphor formulation similar to that of paclitaxel.

[4] = Plasma clearance of free IB versus Nano-IB (Example 6); type: in vivo, rat; settings: non tumor-bearing adult male rats, tail vein, readings over 1 hour
Procedure: Imipramine Blue liposomes were injected via the tail vein into adult male rats (non tumor-bearing). Blood samples were taken via the orbital cavity at different time points after drug administration, plasma separated and analyzed for IB content via absorbance readings on spectrophotometer.

CCN(CC)c1ccc(C(c2ccc(N(CC)CC)cc2)=c2ccc3c(c2)CCc2ccccc2[N+]=3CCCN(C)C)cc1 [IB, Imipramine Blue]
inhibition of HIF2a expression (HIF2a): around 90% | effect on cytoskeleton (RT2 glioma cells): alters the arrangement of the cytoskeleton | invasion relative to control (100 percent) (glioma cells): around 60% | concentration at which IB is cytotoxic to cancer [1]: above 20 μg/ml | proliferation of RT2 cells ([1]; CCK8): not antiproliferative; also recorded: not particularly cytotoxic or anti-proliferative | cytotoxicity to RT2 cells ([1]; CCK8, at anti-invasive concentrations): not particularly cytotoxic | effect on astrocyte culture (astrocytes): benign | anti-invasive effect [2]: highest anti-invasive properties; also recorded: dose-dependent anti-invasive response | half-life of free IB [3]: 11 min | half-life of free IB ([3]; listed as free imipramine blue): around 11 minutes | half-life of free IB [4]: 12 min
